# Experimental data published in patent EP3344255B1 (priority 2016, dated 2017).
# Like-named read-outs stand apart in the source and are kept apart here.
# Tests used:
# Format in all cases: cell-based, Acinetobacter baumannii
# [1] = test system: colistin-susceptible A.baumannii strains; assay: Growth on Mueller Hinton Agar with and without methylene blue; conditions: 14 mcg/ml methylene blue in Mueller Hinton Agar
# Source text: (§1) Firstly, colistin-susceptible A.baumannii strains obtained from the same passage were subcultured on media (Mueller Hinton Agar) containing 14 mcg/ml methylene blue and without methylene blue and colistin gradient test (E-test) strips were placed on them.
# [2] = test system: A.baumannii bacteria with resistance to colistin
# Description: as §1
# Later, the same tests were performed on A.baumannii bacteria with resistance to colistin. […] These bacterial varieties with resistance to colistin were tested based on species with different levels of MIC (minimum inhibitory concentrations) for colistin.
# [3] = test system: colistin-susceptible A.baumannii strains; assay: Colistin gradient test (E-test) on Mueller Hinton Agar with and without methylene blue
# Source text: as §1
# [4] = test system: A.baumannii bacteria with resistance to colistin; assay: as above
# Description: as §1
# Later, the same tests were performed on A.baumannii bacteria with resistance to colistin. While there was growth in the medium without methylene blue (Mueller Hinton Agar), there was no growth in the medium containing methylene blue. […] These bacterial varieties with resistance to colistin were tested based on species with different levels of MIC (minimum inhibitory concentrations) for colistin. […] In other words, it's understood these bacteria were inhibited. […] The probable cause of this reduction is that those with MIC values more than 0.5 mcg/ml in the bacterial population were selectively killed by methylene blue. […] However, the inhibition rate for strains with high MIC value (like 32 mcg/ml) was higher than the inhibition rate for strains with low MIC value (like 4-8 mcg/ml). In other words, the susceptiblity to methylene blue is proportional to the colistin resistance levels of colistin-resistant A.baumannii bacteria.
# These effects of inhibition of colistin-resistant A.baumannii bacteria by methylene blue are clearly understood from the appearance on MHA (Mueller Hinton Agar) media. Image 1 and 2 provide the appearance of A.baumannii strains with homogeneous resistance to colistin on MHA (Mueller Hinton Agar) media. […] Images 3 and 4 provide images of heteroresistant A.baumannii strains with resistance to colistin on MHA.
Compound,growth inhibition [1],"growth inhibition ([2]; 14 mcg/ml methylene blue on MHA, heteroresistant strain, internal zone with colistin MIC 32 mcg/ml)","growth inhibition ([2]; 14 mcg/ml methylene blue on MHA, homogeneously resistant strain with colistin MIC 32 mcg/ml (Image 2))","growth ([2]; medium containing methylene blue (14 mcg/ml), colistin resistant bacteria, growth in medium without methylene blue)","growth inhibition ([2]; methylene blue medium, bacteria with high levels of colistin resistance (MIC value 32 mcg/ml))","growth inhibition ([2]; methylene blue medium, bacteria with low levels of colistin resistance (MIC value 1 or 3 mcg/ml))","inhibitory effect on bacterial subpopulations ([2]; methylene blue solution, all subpopulations with colistin MIC value above 0.5 mcg/ml)","increase of susceptibility to colistin ([3]; effect of methylene blue, strains with colistin MIC values of 0.5 mcg/ml or less)","susceptibility of A.baumannii strain to colistin ([3]; medium containing 14 mcg/ml methylene blue, colistin susceptible strains)","MIC ([4]; 14 mcg/ml methylene blue on MHA, heteroresistant strain, outer zone (MIC 2 mcg/ml before)) [µg/mL]","MIC ([4]; MHA without methylene blue, heteroresistant strain, internal zone (Image 3)) [µg/mL]","MIC ([4]; MHA without methylene blue, heteroresistant strain, outer zone (Image 3)) [µg/mL]","MIC ([4]; MHA without methylene blue, strain with homogeneous resistance to colistin (Image 1)) [µg/mL]","MIC (minimum inhibitory concentration) ([4]; with methylene blue, bacteria with low levels of colistin resistance (MIC 1 or 3 mcg/ml before)) [µg/mL]","MIC (minimum inhibitory concentration) ([4]; without methylene blue, bacteria with high levels of colistin resistance) [µg/mL]","regression of colistin MIC ([3]; medium containing methylene blue vs without, colistin susceptible strains) [µg/mL]"
CN(C)c1ccc2nc3ccc(=[N+](C)C)cc-3sc2c1 [methylene blue],did not inhibit growth,totally inhibited,completely inhibited,no growth,completely stopped growth,did not completely stop growing,inhibitory effects,no increased susceptibility,slightly increased,,,,,,,
Colistin (polymyxin E),,,,,,,,,,0.5,32,2,32,0.5,32,~0.5
